Experimental data as given in US11046700B2, “Substituted imidazo[1,2-a]pyrazines, pyrazolo[1,5-c]pyrimidines, pyrazolo[1,5-a]pyridines, and purines for the treatment of schistosomiasis” (Merck Patent GmbH, priority 2017, dated 2021).

What was measured:
[1] = system: S. mansoni juvenile worms; test: Mouse infection model, juvenile worms, oral treatment day 25 post infection, worm recovery; assay type: in vivo, Schistosoma mansoni; settings: mice
Protocol: (§1) Methods for the subcutaneous infection of mice and subsequent worm recovery were as described in Mansour et al (2016) except that infection was with 150 cercariae and the perfusion medium was citrate saline (0.9% sodium chloride, 1.5% tri-sodium citrate). Perfusion was carried out 8 days (adult infections) or 15 days (juvenile infections) after treatment. Perfuseate was collected into 30 mL universal tubes. RBC (Red Blood Cells) were removed by allowing the perfuseate to settle for 10 min, removal of most of the supernatant and washing once as above with 10 mL perfusion medium. A drop of dilute aqueous saponin solution was added to lyse any remaining RBC and the worm suspension poured into a grid-marked small petri dish. The tube was rinsed out into the petri dish and examined for any remaining worms. Worms were counted using a dissecting microscope. The mouse livers removed after perfusion were squashed between two thick glass plates and examined visually and any remaining worms added to those counted as above.
(§2) For testing efficacy against the juvenile worms, treatment was on day 25 post infection and for testing against the adult worms on day 42 post infection. Drugs were suspended in 7% Tween-80/3% Ethanol/double distilled water and drug dispersal was facilitated by vortexing and using a sonicating water bath (Formulation F1). Alternatively, drugs were suspended in 10% DMSO, 90% double distilled water containing 50 mM Na2HPO4 with 0.5% Tween-80 by first dissolving or suspending the drug in DMSO then adding the DMSO solution/suspension to the aqueous solution (Formulation F2). In a further set of conditions, drugs were first dissolved in DMSO, then diluted with corn oil to give a 5% DMSO+drug solution/suspension (Formulation F3)
(§3) The drug solution/suspensions were given by oral gavage at the rate of 10 ml/kg. Positive controls (artemether for juvenile worms and praziquantel for adult worms) were used in each experiment.

HepG2 cell line = test: Cytotoxicity against human HepG2 cell lines; assay type: cell-based
[2] = system: S. mansoni juvenile worms; test: In vitro assay, S. mansoni juvenile worms; assay type: cell-based; settings: Schistosoma mansoni; S. mansoni juvenile worms, in vitro; read-out: (b) Juvenile
Protocol: (§4) The routine biological assays using adult or juvenile worms and cytotoxicity assays using MRC-5 cells have been disclosed previously in Mansour, N. R., et al. (2016). “High Throughput Screening Identifies Novel Lead Compounds with Activity against Larval, Juvenile and Schistosoma mansoni PLoS Negl Trap Dis 10(4): e0004659. Cytotoxicity assays using the HepG2 cell line were carried out as described in Molecular Diversity (2015) 19, 251-261.
(b) S. mansoni juvenile worms

S. mansoni adult worms [3] = test: In vitro assay, S. mansoni adult worms; assay type: cell-based; settings: Schistosoma mansoni; S. mansoni adult worms, in vitro; read-out: (a) Adult
Protocol: as §4
(a) S. mansoni adult worms

S. mansoni adult worms [4] = test: Mouse infection model, adult worms, oral treatment day 42 post infection, worm recovery; assay type: in vivo, Schistosoma mansoni; settings: mice
Protocol: as §1, §2, §3

[5] = oral 400 mg/kg, Formulation F1, negative control 33.0 ± 7.2
[6] = oral 400 mg/kg, Formulation F1, negative control 33.2 ± 9.09
[7] = oral 25 mg/kg, Formulation F1, negative control 33.2 ± 9.09
[8] = oral 25 mg/kg, Formulation F2, negative control 33.2 ± 9.09
[9] = oral 50 mg/kg, Formulation F1, negative control 33.0 ± 7.2
[10] = oral 5 mg/kg, Formulation F2, negative control 33.2 ± 9.09
[11] = oral 6.25 mg/kg, Formulation F3, negative control 32.6 ± 10.6
[12] = oral 50 mg/kg, Formulation F3, negative control 32.8 ± 14
[13] = oral 50 mg/kg, Formulation F1, negative control 33.8 ± 4.1
[14] = oral 100 mg/kg, Formulation F1, negative control 33.8 ± 4.1
[15] = oral 400 mg/kg, Formulation F1, negative control 33.8 ± 4.1
[16] = oral 400 mg/kg, Formulation F1, negative control 38.8 ± 5.4
[17] = oral 50 mg/kg, Formulation F1, negative control 33.2 ± 9.09

| Structure (SMILES) | IC50 [2] | IC50 (S. mansoni adult worms [3]) | (e) Cytotox HepG2 (HepG2 cell line) | other results |
| --- | --- | --- | --- | --- |
| CO[C@H]1O[C@@H]2O[C@@]3(C)CC[C@H]4[C@H](C)CC[C@@H]([C@H]1C)[C@@]24OO3 [Artemether, artemether, reference compound] | – | – | – | Mean worm recovery [1, 5]: 8.2 ± 4.1; Percent worm reduction [1, 5]: 75%; Mean worm recovery [1, 6]: 8.6 ± 4.16; Percent worm reduction [1, 6]: 74% |
| Fc1c(-c2c(C(F)(F)F)nc3cnc(-c4cccc(C(F)(F)C(F)(F)F)c4)cn23)ccc2[nH]ncc12 [Example 29, 4-fluoro-5-{2-trifluoromethyl-6-[3-(pentafluoroethyl)phenyl]imidazo[1,2-a]pyrazin-3-yl}-1H-indazole] | 28 nM | 30 nM | 8.9 µM | Mean worm recovery [1, 10]: 14.8 ± 6.61; Percent worm reduction [1, 10]: 55%; Mean worm recovery [1, 11]: 2.0 ± 2.6; Percent worm reduction [1, 11]: 94%; Mean worm recovery [1, 8]: 4 ± 1.41; Percent worm reduction [1, 8]: 88% |
| Fc1ccc(-c2cn3c(-c4ccc5[nH]ncc5c4F)c(C4CC4)nc3cn2)cc1C(F)(F)F [Example 32] | – | 63 nM | 16.1 µM | Mean worm recovery [1, 9]: 29.0 ± 7.9; Percent worm reduction [1, 9]: 12% |
| Oc1cc(F)c(-c2c(C3CC3)nc3cnc(-c4ccc(F)c(C(F)(F)F)c4)cn23)c(F)c1 [Example 34, 4-(2-cyclopropyl-6-(4-fluoro-3-(trifluoromethyl)phenyl)imidazo[1,2-a]pyrazin-3-yl)-3,5-difluorophenol] | 88 nM | 69 nM | 8.9 µM | Mean worm recovery [1, 9]: 24.8 ± 7.4; Percent worm reduction [1, 9]: 25% |
| Fc1ccc(-c2cn3c(-c4ccc5[nH]ncc5c4F)c(C(F)(F)F)nc3cn2)cc1C1CCC1 [Example 82, 6-(3-Cyclobutyl-4-fluoro-phenyl)-3-(4-fluoro-1H-indazol-5-yl)-2-trifluoromethyl-imidazo[1,2-a]pyrazine] | 59 nM | 45 nM | 6.1 µM | – |
| CC(C)Oc1cccc(-c2cn3c(-c4ccc5[nH]ncc5c4F)c(C(F)(F)F)nc3cn2)c1 [Example 86, 3-(4-Fluoro-1H-indazol-5-yl)-6-(3-isopropoxy-phenyl)-2-trifluoromethyl-imidazo[1,2-a]pyrazine] | 26 nM | 17 nM | 13.2 µM | – |
| CC(C)c1cc(-c2cn3c(-c4ccc5[nH]ncc5c4F)c(C(F)(F)F)nc3cn2)ccn1 [Example 87, 3-(4-Fluoro-1H-indazol-5-yl)-6-(2-isopropyl-pyridin-4-yl)-2-trifluoromethyl-imidazo[1,2-a]pyrazine] | 91 nM | 37 nM | 9.5 µM | – |
| Fc1c(-c2c(C(F)(F)F)nc3cnc(-c4ccnc(C(F)(F)F)c4)cn23)ccc2[nH]ncc12 [Example 88, 3-(4-Fluoro-1H-indazol-5-yl)-2-trifluoromethyl-6-(2-trifluoromethyl-pyridin-4-yl)-imidazo[1,2-a]pyrazine] | 140 nM | 116 nM | 7.0 µM | – |
| CC(C)c1nc2cnc(-c3ccc(F)c(C(F)(F)F)c3)nc2n1-c1c(F)cc(O)cc1F [Example 89, 3,5-Difluoro-4-[2-(4-fluoro-3-trifluoromethyl-phenyl)-8-isopropyl-purin-9-yl]-phenol] | 128 nM | 71 nM | 4.8 µM | – |
| CC(C)c1nc2cnc(-c3cccc(C(F)(F)F)c3)nc2n1-c1ccc(O)cc1F [Example 90, 3-fluoro-4-[8-(propan-2-yl)-2-[3-(trifluoromethyl)phenyl]-9H-purin-9-yl]phenol] | 468 nM | 77 nM | 9.3 µM | – |
| O=C(C1CCCCC1)N1CC(=O)N2CCc3ccccc3C2C1 (stereo not shown) [Praziquantel, praziquantel] | – | – | – | Mean worm recovery (S. mansoni adult worms [4]; [13]): 29.8 ± 8.4; Percent worm reduction (S. mansoni adult worms [4]; [13]): 13%; Mean worm recovery (S. mansoni adult worms [4]; [14]): 12.2 ± 6.3; Percent worm reduction (S. mansoni adult worms [4]; [14]): 64%; Mean worm recovery (S. mansoni adult worms [4]; [15]): 2.6 ± 1.5; Percent worm reduction (S. mansoni adult worms [4]; [15]): 92%; Mean worm recovery (S. mansoni adult worms [4]; [16]): 2.3 ± 1.7; Percent worm reduction (S. mansoni adult worms [4]; [16]): 94%; Mean worm recovery [1, 17]: 26.2 ± 9.44; Percent worm reduction [1, 17]: 21% |

Further lines, with some results ahead:

| IC50 [2] | IC50 (S. mansoni adult worms [3]) | Structure (SMILES) | (e) Cytotox HepG2 (HepG2 cell line) | other results |
| --- | --- | --- | --- | --- |
| 19 nM | 47 nM | CC(C)c1nc2cnc(-c3ccc(F)c(C(F)(F)F)c3)cn2c1-c1ccc2[nH]ncc2c1F [Example 2, 4-fluoro-5-{6-[4-fluoro-3-(trifluoromethyl)phenyl]-2-(propan-2-yl)imidazo[1,2-a]pyrazin-3-yl}-1H-indazole] | 10.4 µM | Mean worm recovery [1, 7]: 7.2 ± 3.9; Percent worm reduction [1, 7]: 78%; Mean worm recovery [1, 8]: 4.4 ± 3.91; Percent worm reduction [1, 8]: 87%; Mean worm recovery [1, 9]: 4.0 ± 4.1; Percent worm reduction [1, 9]: 88% |
| 21 nM | – | CCc1nc2cnc(-c3ccc(F)c(C(F)(F)C(F)(F)F)c3)cn2c1-c1c(F)cc(O)cc1F [Example 45, 4-{2-ethyl-6-[4-fluoro-3-(1,1,2,2,2-pentafluoroethyl)phenyl]imidazo[1,2-a]pyrazin-3-yl}-3,5-difluorophenol] | – | Mean worm recovery [1, 7]: 31.8 ± 5.76; Percent worm reduction [1, 7]: 4% |
| 2 nM | 2 nM | CC(C)c1cc(-c2cn3c(-c4ccc5[nH]ncc5c4F)c(C(F)(F)F)nc3cn2)ccc1F [Example 67, 3-(4-Fluoro-1H-indazol-5-yl)-6-(4-fluoro-3-isopropyl-phenyl)-2-trifluoromethyl-imidazo[1,2-a]pyrazine] | 17.0 µM | Mean worm recovery [1, 12]: 0; Percent worm reduction [1, 12]: 100% |
| 4 nM | 7 nM | CC(C)c1cc(-c2cn3c(-c4ccc5[nH]ncc5c4F)c(C4CCC4)nc3cn2)ccc1F [Example 77, 2-Cyclobutyl-3-(4-fluoro-1H-indazol-5-yl)-6-(4-fluoro-3-isopropyl-phenyl)-imidazo[1,2-a]pyrazine] | 10.8 µM | – |
| 5 nM | 5 nM | CC(C)c1cc(-c2cn3c(-c4ccc5[nH]ncc5c4F)c(C4CC4)nc3cn2)ccc1F [Example 79, 2-Cyclopropyl-3-(4-fluoro-1H-indazol-5-yl)-6-(4-fluoro-3-isopropyl-phenyl)-imidazo[1,2-a]pyrazine] | 15.7 µM | – |
| 12 nM | 11 nM | CC(C)Oc1cc(-c2cn3c(-c4ccc5[nH]ncc5c4F)c(C(F)(F)F)nc3cn2)ccc1F [Example 81, 3-(4-Fluoro-1H-indazol-5-yl)-6-(4-fluoro-3-isopropoxy-phenyl)-2-trifluoromethyl-imidazo[1,2-a]pyrazine] | 9.2 µM | – |
| 15 nM | < 12 nM | CC(C)c1cc(-c2cn3c(-c4ccc5[nH]ncc5c4Cl)c(C(F)(F)F)nc3cn2)ccc1F [Example 83, 3-(4-Chloro-1H-indazol-5-yl)-6-(4-fluoro-3-isopropyl-phenyl)-2-trifluoromethyl-imidazo[1,2-a]pyrazine] | 6.6 µM | – |
| 19 nM | 12 nM | Fc1ccc(-c2cn3c(-c4ccc5[nH]ncc5c4F)c(C(F)(F)F)nc3cn2)cc1C1CC1 [Example 84, 6-(3-Cyclopropyl-4-fluoro-phenyl)-3-(4-fluoro-1H-indazol-5-yl)-2-trifluoromethyl-imidazo[1,2-a]pyrazine] | 10.5 µM | – |
